Assay results reported in patent US6939550B2, “Stabilized antihistamine syrup” (Schering Corporation, priority 1998, dated 2005).
Read-outs that look alike come from different tables or passages of the source. Blank lines part the entries; values can stand above or below the molecule they belong to.

Columns and labels:
[1] = Test of common antioxidant additives incorporated into the syrup
Procedure: Another test was conducted, wherein common antioxidant additives were incorporated into the syrup. Ideally, the antioxidant will be soluble in the syrup and is safe for use in foods and pharmaceutical preparations.

[2] = Accelerated storage stability of syrups in sealed vials at 55° C., analysis by HPLC; assay type: physicochemical; conditions: severe storage conditions of the test (55° C.)
Procedure: This level can be readily determined by means of an accelerated storage stability test, in which packages of the final product are stored at elevated temperatures above the usual storage temperatures to which the product is expected to be exposed; the present inventors have used temperatures up to 55° C. for this purpose, although such temperatures tend to cause a minor discoloration (darkening) of the syrups, probably due to some carmelization of the contained sucrose. It is expected that most drug degradation reactions will be accelerated by the elevated temperature. At predetermined intervals, some of the packages are opened and analyzed to determine the amount of active ingredients and impurities present in the formulation.
Twenty five mL portions of the two syrups are placed into 50 mL flint glass vials, then sealed with rubber stoppers and aluminum caps. The sealed vials are stored at 55° C. until their removal and analysis by high performance liquid chromatography.
Sample A from the preceding example and similarly prepared syrups which also contain 0.1, 0.25, 0.5 or 0.75 mg/mL of disodium EDTA are packaged as in the prior example, and stored and tested similarly.

color change in the product ([1]; additive at 0.1 and 1 mg/mL in the syrup): unacceptable strong color change
Molecule: O=C1O[C@H]([C@@H](O)CO)C(O)=C1O [ascorbic acid]

Molecule: tocopherol
solubility in the syrup ([1]; oil-soluble antioxidants): not soluble

solubility in the syrup [1]: not soluble
Molecule: Cc1cc(C(C)(C)C)c(O)c(C(C)(C)C)c1 [butylated hydroxytoluene]

inhibition of the degradation of loratadine [2]: significant inhibition
Molecule: O=C(O)CN(CCN(CC(=O)O)CC(=O)O)CC(=O)O [EDTA, ethylenediaminetetraacetic acid]

Molecule: O=S([O-])O.[Na+] [sodium bisulfite]
odor imparted to the syrup ([1]; additive in the syrup): pungent, disagreeable odor
